# Numbered stars: 1 amine (or outer) side, 2 acyl side, 3 side chain; on linkers, the order of the positions; unused ones are H or OH. Side chains are listed from the residue outwards. Peptide text beside a SMILES is read from it. * marks the point of attachment. C18 diacid = O=C(O)CCCCCCCCCCCCCCCCC(=O)*; γGlu = O=C(O)[C@H](CCC(=O)[*:2])N[*:1]; AEEA = NCCOCCOCC(=O)O
# Assay: Assay (II) PK i.v. minipig, in vivo half-life
# Design: species or system Göttingen mini-pigs
# Details: male, Göttingen, minipig, iv
# Summary of the method: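 Male Göttingen mini-pigs (18–22 kg, n=5) received 6 nmol/kg i.v. via central catheter, formulated in 50 mM K2HPO4, 0.05% tween 80, pH 8.0. EDTA plasma sampled pre-dose to 240 h, quantified by TFC/LC/MS/MS (MRM, range 1-2000 nmol/l); half-life from non-compartmental analysis per animal.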
row,"Half-life minipig, Assay (II) [h]",SMILES
1,40,CC[C@H](C)[C@H](NC(=O)[C@H](Cc1ccc(O)cc1)NC(=O)[C@H](CCCNC(=N)N)NC(=O)[C@H](CCCNC(=N)N)NC(=O)[C@H](CC(C)C)NC(=O)[C@H](CC(=O)O)NC(=O)[C@H](C)NC(=O)[C@H](C)NC(=O)[C@H](Cc1ccc(O)cc1)NC(=O)[C@H](CCC(N)=O)NC(=O)[C@H](C)NC(=O)[C@H](CCSC)NC(=O)[C@H](CCCCNC(=O)COCCOCCNC(=O)COCCOCCNC(=O)CC[C@H](NC(=O)CCCCCCCCCCCCCCCCC(=O)O)C(=O)O)NC(=O)[C@H](CCC(=O)O)NC(=O)[C@@H]1CCCN1C(=O)[C@@H](NC(=O)[C@H](C)NC(=O)[C@H](CC(N)=O)NC(=O)[C@H](CC(=O)O)NC(=O)CNC(=O)[C@@H]1CCCN1C(=O)[C@H](Cc1ccc(O)cc1)NC(=O)[C@@H](NC(=O)[C@@H]1CCCN1C(=O)[C@H](CCC(=O)O)NC(=O)[C@H](CC(C)C)NC(=O)[C@@H]1CCCN1)C(C)C)[C@@H](C)O)C(=O)N[C@@H](CC(N)=O)C(=O)N[C@@H](CCSC)C(=O)N[C@@H](CC(C)C)C(=O)N[C@H](C(=O)N[C@@H](CCCNC(=N)N)C(=O)N1CCC[C@H]1C(=O)N[C@@H](CCCNC(=N)N)C(=O)N[C@@H](Cc1ccc(O)cc1)C(N)=O)[C@@H](C)O [Compound R] (H-PLEPVYPGDNATPEK([AEEA-AEEA-γGlu-C18 diacid])MAQYAADLRRYINMLTRPRY-NH2; N-terminus and C-terminus assumed)

# Same assay, conditions: male, Göttingen, minipig, iv, Half-life minipig, Assay (II)
row,half-life [h],SMILES
1,17,CC[C@H](C)[C@H](NC(=O)[C@H](Cc1ccc(O)cc1)NC(=O)[C@H](CCCNC(=N)N)NC(=O)[C@H](CCCNC(=N)N)NC(=O)[C@H](CC(C)C)NC(=O)[C@H](CC(=O)O)NC(=O)[C@H](C)NC(=O)[C@H](C)NC(=O)[C@H](Cc1ccc(O)cc1)NC(=O)[C@H](CCC(N)=O)NC(=O)[C@H](C)NC(=O)[C@H](CCSC)NC(=O)[C@H](CCC(N)=O)NC(=O)[C@H](CCC(=O)O)NC(=O)[C@@H]1CCCN1C(=O)[C@@H](NC(=O)[C@H](C)NC(=O)[C@H](CC(N)=O)NC(=O)[C@H](CC(=O)O)NC(=O)CNC(=O)[C@@H]1CCCN1C(=O)[C@H](CCCCNC(=O)COCCOCCNC(=O)COCCOCCNC(=O)CC[C@H](NC(=O)CCCCCCCCCCCCCCCCC(=O)O)C(=O)O)NC(=O)[C@@H](NC(=O)[C@@H]1CCCN1C(=O)[C@H](CCC(=O)O)NC(=O)[C@H](CC(C)C)NC(=O)[C@@H]1CCCN1)C(C)C)[C@@H](C)O)C(=O)N[C@@H](CC(N)=O)C(=O)N[C@@H](CCSC)C(=O)N[C@@H](CC(C)C)C(=O)N[C@H](C(=O)N[C@@H](CCCNC(=N)N)C(=O)N1CCC[C@H]1C(=O)N[C@@H](CCCNC(=N)N)C(=O)N[C@@H](Cc1ccc(O)cc1)C(N)=O)[C@@H](C)O [Compound AA]
2,45,CC[C@H](C)[C@H](NC(=O)[C@H](Cc1ccc(O)cc1)NC(=O)[C@H](CCCNC(=N)N)NC(=O)[C@H](CCCNC(=N)N)NC(=O)[C@H](CC(C)C)NC(=O)[C@H](CC(=O)O)NC(=O)[C@H](C)NC(=O)[C@H](C)NC(=O)[C@H](Cc1ccc(O)cc1)NC(=O)[C@H](CCC(N)=O)NC(=O)[C@H](C)NC(=O)[C@H](CCSC)NC(=O)[C@H](CCC(N)=O)NC(=O)[C@H](CCC(=O)O)NC(=O)[C@@H]1CCCN1C(=O)[C@@H](NC(=O)[C@H](C)NC(=O)[C@H](CC(N)=O)NC(=O)[C@H](CC(=O)O)NC(=O)CNC(=O)[C@@H]1CCCN1C(=O)[C@H](Cc1ccc(O)cc1)NC(=O)[C@@H](NC(=O)[C@@H]1CCCN1C(=O)[C@H](CCC(=O)O)NC(=O)[C@@H](N)CC(C)C)C(C)C)[C@@H](C)O)C(=O)N[C@@H](CC(N)=O)C(=O)N[C@@H](CCSC)C(=O)N[C@@H](CC(C)C)C(=O)N[C@H](C(=O)N[C@@H](CCCCNC(=O)COCCOCCNC(=O)COCCOCCNC(=O)CC[C@H](NC(=O)CCCCCCCCCCCCCCCCC(=O)O)C(=O)O)C(=O)N1CCC[C@H]1C(=O)N[C@@H](CCCNC(=N)N)C(=O)N[C@@H](Cc1ccc(O)cc1)C(N)=O)[C@@H](C)O [AI] (H-LEPVYPGDNATPEQMAQYAADLRRYINMLTK([AEEA-AEEA-γGlu-C18 diacid])PRY-NH2; N-terminus and C-terminus assumed)
3,62,CC[C@H](C)[C@H](NC(=O)[C@H](Cc1ccc(O)cc1)NC(=O)[C@H](CCCCNC(=O)COCCOCCNC(=O)COCCOCCNC(=O)CC[C@H](NC(=O)CCCCCCCCCCCCCCCCC(=O)O)C(=O)O)NC(=O)[C@H](CCCNC(=N)N)NC(=O)[C@H](CC(C)C)NC(=O)[C@H](CC(=O)O)NC(=O)[C@H](C)NC(=O)[C@H](C)NC(=O)[C@H](Cc1ccc(O)cc1)NC(=O)[C@H](CCC(N)=O)NC(=O)[C@H](C)NC(=O)[C@H](CCSC)NC(=O)[C@H](CCC(N)=O)NC(=O)[C@H](CCC(=O)O)NC(=O)[C@@H]1CCCN1C(=O)[C@@H](NC(=O)[C@H](C)NC(=O)[C@H](CC(N)=O)NC(=O)[C@H](CC(=O)O)NC(=O)CNC(=O)[C@@H]1CCCN1C(=O)[C@H](Cc1ccc(O)cc1)NC(=O)[C@@H](NC(=O)[C@@H]1CCCN1C(=O)[C@H](CCC(=O)O)NC(=O)[C@H](CC(C)C)NC(=O)[C@@H]1CCCN1)C(C)C)[C@@H](C)O)C(=O)N[C@@H](CC(N)=O)C(=O)N[C@@H](CCSC)C(=O)N[C@@H](CC(C)C)C(=O)N[C@H](C(=O)N[C@@H](CCCNC(=N)N)C(=O)N1CCC[C@H]1C(=O)N[C@@H](CCCNC(=N)N)C(=O)N[C@@H](Cc1ccc(O)cc1)C(N)=O)[C@@H](C)O [Compound H]
4,30,CC[C@H](C)[C@H](NC(=O)[C@H](Cc1ccc(O)cc1)NC(=O)[C@H](CCCNC(=N)N)NC(=O)[C@H](CCCNC(=N)N)NC(=O)[C@H](CC(C)C)NC(=O)[C@H](CCCCNC(=O)COCCOCCNC(=O)COCCOCCNC(=O)CC[C@H](NC(=O)CCCCCCCCCCCCCCCCC(=O)O)C(=O)O)NC(=O)[C@H](C)NC(=O)[C@H](C)NC(=O)[C@H](Cc1ccc(O)cc1)NC(=O)[C@H](CCC(N)=O)NC(=O)[C@H](C)NC(=O)[C@H](CCSC)NC(=O)[C@H](CCC(N)=O)NC(=O)[C@H](CCC(=O)O)NC(=O)[C@@H]1CCCN1C(=O)[C@@H](NC(=O)[C@H](C)NC(=O)[C@H](CC(N)=O)NC(=O)[C@H](CC(=O)O)NC(=O)CNC(=O)[C@@H]1CCCN1C(=O)[C@H](Cc1ccc(O)cc1)NC(=O)[C@@H](NC(=O)[C@@H]1CCCN1C(=O)[C@H](CCC(=O)O)NC(=O)[C@H](CC(C)C)NC(=O)[C@@H]1CCCN1)C(C)C)[C@@H](C)O)C(=O)N[C@@H](CC(N)=O)C(=O)N[C@@H](CCSC)C(=O)N[C@@H](CC(C)C)C(=O)N[C@H](C(=O)N[C@@H](CCCNC(=N)N)C(=O)N1CCC[C@H]1C(=O)N[C@@H](CCCNC(=N)N)C(=O)N[C@@H](Cc1ccc(O)cc1)C(N)=O)[C@@H](C)O [Compound K] (H-PLEPVYPGDNATPEQMAQYAAK([AEEA-AEEA-γGlu-C18 diacid])LRRYINMLTRPRY-NH2; N-terminus and C-terminus assumed)
5,44,CC[C@H](C)[C@H](NC(=O)[C@H](Cc1ccc(O)cc1)NC(=O)[C@H](CCCNC(=N)N)NC(=O)[C@H](CCCNC(=N)N)NC(=O)[C@H](CC(C)C)NC(=O)[C@H](CC(=O)O)NC(=O)[C@H](C)NC(=O)[C@H](C)NC(=O)[C@H](Cc1ccc(O)cc1)NC(=O)[C@H](CCC(N)=O)NC(=O)[C@H](C)NC(=O)[C@H](CCSC)NC(=O)[C@H](CCCCNC(=O)COCCOCCNC(=O)COCCOCCNC(=O)CC[C@H](NC(=O)CCCCCCCCCCCCCCCCC(=O)O)C(=O)O)NC(=O)[C@H](CCC(=O)O)NC(=O)[C@@H]1CCCN1C(=O)[C@@H](NC(=O)[C@H](C)NC(=O)[C@H](CC(N)=O)NC(=O)[C@H](CC(=O)O)NC(=O)CNC(=O)[C@@H]1CCCN1C(=O)[C@H](Cc1ccc(O)cc1)NC(=O)[C@@H](NC(=O)[C@@H]1CCCN1C(=O)[C@H](CCC(=O)O)NC(=O)[C@H](CC(C)C)NC(=O)[C@@H]1CCCN1)C(C)C)[C@@H](C)O)C(=O)N[C@@H](CC(N)=O)C(=O)N[C@@H](CCSC)C(=O)N[C@@H](CC(C)C)C(=O)N[C@H](C(=O)N[C@@H](CCCNC(=N)N)C(=O)N1CCC[C@H]1C(=O)N[C@@H](CCCNC(=N)N)C(=O)N[C@@H](Cc1ccc(O)cc1)C(N)=O)[C@@H](C)O [Compound R] (H-PLEPVYPGDNATPEK([AEEA-AEEA-γGlu-C18 diacid])MAQYAADLRRYINMLTRPRY-NH2; N-terminus and C-terminus assumed)
